In assay [1] the target is T1, 5-hydroxytryptamine receptor 1A (Rattus norvegicus, UniProt P19327).
T1 sequence (P19327 whole entry): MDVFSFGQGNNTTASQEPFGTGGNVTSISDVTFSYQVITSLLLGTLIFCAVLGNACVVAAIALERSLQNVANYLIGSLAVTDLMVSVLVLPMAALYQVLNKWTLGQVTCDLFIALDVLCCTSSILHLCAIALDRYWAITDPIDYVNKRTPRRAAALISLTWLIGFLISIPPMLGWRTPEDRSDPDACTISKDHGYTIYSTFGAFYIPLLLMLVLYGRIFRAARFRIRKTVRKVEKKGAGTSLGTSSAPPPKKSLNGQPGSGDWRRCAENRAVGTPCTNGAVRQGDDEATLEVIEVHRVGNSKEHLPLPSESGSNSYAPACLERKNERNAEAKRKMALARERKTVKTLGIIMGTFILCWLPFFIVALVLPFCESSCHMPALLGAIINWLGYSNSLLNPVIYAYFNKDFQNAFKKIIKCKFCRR
Description: Affinity on 5-hydroxytryptamine 1A receptor labeled by [3H]8-OH-DPAT.

Assay [2] has as its target Serotonin 2 (5-HT2) receptor (Rattus norvegicus, UniProt P30994+P08909+P14842). Put plainly: Affinity on 5-hydroxytryptamine 2 receptor labeled by [125I]DOI. It is filed as protein assay.

As for `COc1ccc2occ(CCN(C)C)c2c1`, the Ki turned out to be 0.101 µM in assay [1] and 0.095 µM in assay [2]. For `COc1ccc2occ(CC(C)N)c2c1` (racemic), the values for the Ki in assay [1] and in assay [2] were 0.445 µM and 0.042 µM, respectively.

On to `COc1ccc2occ(CC(C)N)c2c1` (stereo in doubt; 4), for which the results for the Ki in assay [1] and in assay [2] were 0.779 µM and 0.0271 µM, respectively. As to `COc1ccc2[nH]cc(CCN(C)C)c2c1` [MEBUFOTENIN], the affinity in assay [1] corresponds to a Ki of 0.069 µM. This lies in the double-digit nanomolar range.

For orientation: Ki means the equilibrium dissociation constant of an inhibitor or competing ligand from its target. A low value points to tighter binding.
